In US4296233A, “Conjugate of amino sugar-steroid hormone” (Kureha Kagaku Kogyo Kabushiki Kaisha, priority 1978, dated 1981):
Converted amounts (≈) assume the structure as drawn. “And” between values parts separate entries of the source, which are not always exact repeats. Identical values can stand only once. Like-named read-outs stand apart in the source and are kept apart here.

Assays:
[1] = Solubility in a mixed solvent of 98 vol.% of water and 2 vol.% of ethanol (method of Example 1); type: physicochemical; settings: for solubility: water/ethanol 98:2, organic solvent or mixture
Experimental: The conjugate is dissolved at 4.39×10^-5 mole/liter (30 mg/liter) in a mixed solvent of 98 vol.% of water and 2 vol.% of ethanol.
Solubility of dehydroepiandrosterone in the same mixed solvent measured by absorbance at 235 mμ is 0.24×10^-5 mole/liter.

[2] = Solubility of the conjugate in water; type: physicochemical; settings: compared with conjugate at 3-position in Example 1
[3] = test system: antibody which is active to the ketone group at 17-position of dehydroepiandrosterone; assay: Competitive immunoassay with tritium-labelled dehydroepiandrosterone bound to antibody; type: binding; settings: FIG. 1, curves A and B
Experimental: In order to confirm the presence of C-D complex combined to AP, the combined product was analyzed by a competitive immunoassay method described in Seikagaku Jikken Koza (Biochemical Experiment Hormones (First) Page 217 to 252 (by Nippon Seikagaku Kai) (published by Tokyo Kagaku Dojin in 1977).
Dehydroepiandrosterone labelled by tritium (^3 H) was bound to the antibody which is active to the ketone group at 17-position of dehydroepiandrosterone. The combined product or dehydroepiandrosterone was added to the system of the antibody and the labelled compound to measure the amount of free ^3 H-dehydroepiandrosterone release from the system.

[4] = mixed solvent of 98 vol.% of water and 2 vol.% of ethanol, read-out: Solubility

For `C[C@]12CC[C@@H]3c4ccc(O)cc4CC[C@H]3[C@@H]1CC[C@@H]2OC(=O)COC(=O)[C@H]1O[C@@H](O[C@H]2[C@@H](O)[C@@H](CO)OC(O)[C@@H]2N)[C@H](O)[C@@H](O)[C@@H]1O` (stereo partly drawn) [Example 2, conjugate of 1,3,5(10)-estratriene-3,17β-diol (estradiol) and chondrosine at 17-position with a binding agent of bromoacetyl bromide], the “solubility of the product relative to that of estradiol” value ([1]; versus estradiol, method of Example 1) was “about 20 times” and the solubility [1, 4] was 65 µM.
For `C[C@]12CC[C@H]3[C@@H](CC=C4C[C@@H](O)CC[C@@]43C)[C@@H]1CC[C@@H]2OC(=O)COC(=O)[C@H]1O[C@@H](O[C@H]2[C@@H](O)[C@@H](CO)OC(O)[C@@H]2N)[C@H](O)[C@@H](O)[C@@H]1O` (mixture of isomers) [Example 3, Conjugate of dehydroepiandrosterone (hereinafter referring as to DHS) and chondrosine at 17-position with a binding agent of bromoacetyl bromide], the “solubility of the conjugate in water” value [2] was “substantially same with that of the conjugate at 3-position in Example 1”.
With `C[C@]12CC[C@H](OC(=O)COC(=O)[C@H]3O[C@@H](O[C@H]4[C@@H](O)[C@@H](CO)OC(O)[C@@H]4N)[C@H](O)[C@@H](O)[C@@H]3O)CC1=CC[C@@H]1[C@@H]2CC[C@]2(C)C(=O)CC[C@@H]12` (stereo partly drawn) [Example 1, conjugate of 3β-hydroxy-5-androsten-17-one(dehydroepiandrosterone) at 3-position and 2-amino-2-deoxy-3-O-β-glucopyranurosyl-D-galactose (chondrosine) at 6-position with a binding agent of bromoacetyl bromide] the “solubility of the conjugate relative to the non-conjugate dehydroepiandrosterone” value ([1]; versus dehydroepiandrosterone, same mixed solvent) was “more than 18 times” and the solubility [1, 4] was 43.9 µM and 30 µg/mL.
With `C[C@]12CCC(OC(=O)[C@H]3OC(O)[C@H](N)[C@@H](O)[C@@H]3O)CC1=CC[C@@H]1[C@@H]2CC[C@]2(C)C(=O)CC[C@@H]12` (mixture of isomers) [Example 4, Conjugate of DHS and 2-amino-2-deoxy-α-D-glucuronic acid] the solubility [1, 4] was 40.2 µM.
For `C[C@]12CC[C@H](O)CC1=CC[C@@H]1[C@@H]2CC[C@]2(C)C(=O)CC[C@@H]12` [dehydroepiandrosterone, 3β-hydroxy-5-androsten-17-one, reference compound], the “amount of free ^3 H-dehydroepiandrosterone released / binding to the antibody” value [3] was “the amount of free ^3 H-dehydroepiandrosterone was increased by the addition of the combined product or dehydroepiandrosterone whereby the their binding to the antibody is found” and the solubility ([1]; same mixed solvent, measured by absorbance at 235 mμ, read-out: Solubility of dehydroepiandrosterone) was 2.4 µM (≈ 0.692 µg/mL).
